Assay results: ChEMBL document CHEMBL1275354, “Anticonvulsant activity of 2,4(1H)-diarylimidazoles in mice and rats acute seizure models” (Bioorg Med Chem, 2010)
The source made the active and inactive calls. The calls are words filed in the database; no cut-off is given here.

Key:
[1] = system: Mus musculus; experiment: Anticonvulsant activity in albino CF1 mouse assessed as protection against maximal electroshock-induced seizures at 100 mg/kg, ip after 0.5 hrs; type: functional, organism-based; set-up: dose 100 mg/kg
[2] = system: Mus musculus; experiment: Anticonvulsant activity in albino CF1 mouse assessed as protection against subcutaneous metrazole-induced seizures at 300 mg/kg, ip after 0.5 hrs; type: functional, organism-based; set-up: dose 300 mg/kg
[3] = system: Mus musculus; experiment: Anticonvulsant activity against maximal electroshock-induced seizures in ip dosed albino CF1 mouse assessed as minimum effective dose after 4 hrs; type: functional; settings: read-out: MED
[4] = system: Mus musculus; experiment: Anticonvulsant activity in albino CF1 mouse assessed as protection against maximal electroshock-induced seizures at 300 mg/kg, ip after 4 hrs; type: functional, organism-based; set-up: dose 300 mg/kg
[5] = system: Rattus norvegicus; experiment: Anticonvulsant activity in albino Sprague-Dawley rat assessed as protection against maximal electroshock-induced seizures at 30 mg/kg, po after 0.25 hrs; type: functional, organism-based; set-up: dose 30 mg/kg
[6] = system: Mus musculus; experiment: Anticonvulsant activity in albino CF1 mouse assessed as protection against maximal electroshock-induced seizures at 30 mg/kg, ip after 0.5 hrs; type: functional, organism-based; set-up: dose 30 mg/kg
[7] = system: Mus musculus; experiment: Neurotoxicity in albino CF1 mouse assessed as minimal motor impairment at 30 to 300 mg/kg, ip after 0.5 hrs by rotarod test; settings: in vivo
[8] = system: Mus musculus; experiment: Anticonvulsant activity against subcutaneous metrazole-induced seizures in ip dosed albino CF1 mouse assessed as minimum effective dose after 4 hrs; type: functional; settings: albino CF1, 4 h, read-out: MED
[9] = system: Mus musculus; experiment: Anticonvulsant activity in albino CF1 mouse assessed as protection against maximal electroshock-induced seizures at 300 mg/kg, ip after 0.5 hrs; type: functional, organism-based; set-up: dose 300 mg/kg
[10] = system: Mus musculus; experiment: Neurotoxicity in albino CF1 mouse assessed as minimal motor impairment at 100 mg/kg, ip after 4 hrs by rotarod test; type: toxicity, organism-based; set-up: dose 100 mg/kg, route intraperitoneal; settings: in vivo
[11] = system: Rattus norvegicus; experiment: Anticonvulsant activity in albino Sprague-Dawley rat assessed as protection against maximal electroshock-induced seizures at 30 mg/kg, po after 0.5 hrs; type: functional, organism-based; set-up: dose 30 mg/kg
[12] = system: Mus musculus; experiment: Anticonvulsant activity against maximal electroshock-induced seizures in ip dosed albino CF1 mouse assessed as minimum effective dose after 0.5 hrs; type: functional; settings: read-out: MED
[13] = system: Rattus norvegicus; experiment: Anticonvulsant activity in albino Sprague-Dawley rat assessed as protection against maximal electroshock-induced seizures at 30 mg/kg, po after 1 hr; type: functional, organism-based; set-up: dose 30 mg/kg
[14] = system: Mus musculus; experiment: Anticonvulsant activity in albino CF1 mouse assessed as protection against subcutaneous metrazole-induced seizures at 30 mg/kg, ip after 4 hrs; type: functional, organism-based; set-up: dose 30 mg/kg
[15] = system: Mus musculus; experiment: Anticonvulsant activity against subcutaneous metrazole-induced seizures in ip dosed albino CF1 mouse assessed as minimum effective dose after 0.5 hrs; type: functional; settings: albino CF1, 0.5 h, read-out: MED
[16] = system: Mus musculus; experiment: Neurotoxicity in albino CF1 mouse assessed as minimal motor impairment at 200 mg/kg, ip after 0.25 hrs by rotarod test; type: toxicity, organism-based; set-up: dose 200 mg/kg, route intraperitoneal; settings: in vivo
[17] = system: Mus musculus; experiment: Anticonvulsant activity in albino CF1 mouse assessed as protection against maximal electroshock-induced seizures at 100 mg/kg, ip after 4 hrs; type: functional, organism-based; set-up: dose 100 mg/kg
[18] = system: Mus musculus; experiment: Neurotoxicity in ip dosed albino CF1 mouse assessed as minimal motor impairment after 0.25 hrs by rotarod test; type: toxicity, organism-based; settings: in vivo
[19] = system: Mus musculus; experiment: Neurotoxicity in ip dosed albino CF1 mouse assessed as minimum dose required to cause toxicity after 0.5 hrs by rotarod test; type: organism-based; settings: in vivo
[20] = system: Mus musculus; experiment: Anticonvulsant activity in albino CF1 mouse assessed as protection against subcutaneous metrazole-induced seizures at 100 mg/kg, ip after 0.5 hrs; type: functional, organism-based; set-up: dose 100 mg/kg
[21] = system: Mus musculus; experiment: Anticonvulsant activity ip dosed albino CF1 mouse assessed as protection against subcutaneous metrazole-induced seizures after 0.25 hrs; type: functional; settings: albino CF1, 0.25 h
[22] = system: Rattus norvegicus; experiment: Anticonvulsant activity in albino Sprague-Dawley rat assessed as protection against maximal electroshock-induced seizures at 30 mg/kg, po after 2 hrs; type: functional, organism-based; set-up: dose 30 mg/kg
[23] = system: Rattus norvegicus; experiment: Neurotoxicity in albino Sprague-Dawley rat assessed as minimal motor impairment at 30 mg/kg, po by rotarod test; type: toxicity, organism-based; set-up: dose 30 mg/kg, route oral; settings: in vivo
[24] = system: Mus musculus; experiment: Neurotoxicity in albino CF1 mouse assessed as minimal motor impairment at 80 mg/kg, ip after 0.25 hrs by rotarod test; type: toxicity, organism-based; set-up: dose 80 mg/kg, route intraperitoneal; settings: in vivo
[25] = system: Rattus norvegicus; experiment: Anticonvulsant activity in albino Sprague-Dawley rat assessed as protection against maximal electroshock-induced seizures at 30 mg/kg, po after 4 hrs; type: functional, organism-based; set-up: dose 30 mg/kg
[26] = system: Mus musculus; experiment: Anticonvulsant activity in albino CF1 mouse assessed as protection against subcutaneous metrazole-induced seizures at 300 mg/kg, ip after 4 hrs; type: functional, organism-based; set-up: dose 300 mg/kg
[27] = system: Mus musculus; experiment: Anticonvulsant activity in albino CF1 mouse assessed as protection against subcutaneous metrazole-induced seizures at 30 mg/kg, ip after 0.5 hrs; type: functional, organism-based; set-up: dose 30 mg/kg
[28] = system: Mus musculus; experiment: Anticonvulsant activity ip dosed albino CF1 mouse assessed as protection against maximal electroshock-induced seizures after 0.25 hrs; type: functional
[29] = system: Mus musculus; experiment: Neurotoxicity in ip dosed albino CF1 mouse assessed as minimum dose required to cause toxicity after 4 hrs by rotarod test; type: organism-based; settings: in vivo
[30] = system: Mus musculus; experiment: Neurotoxicity in albino CF1 mouse assessed as minimal motor impairment at 300 mg/kg, ip after 0.5 hrs by rotarod test; type: toxicity, organism-based; set-up: dose 300 mg/kg, route intraperitoneal; settings: in vivo
[31] = system: Mus musculus; experiment: Anticonvulsant activity in albino CF1 mouse assessed as protection against subcutaneous metrazole-induced seizures at 100 mg/kg, ip after 4 hrs; type: functional, organism-based; set-up: dose 100 mg/kg
[32] = system: Mus musculus; experiment: Anticonvulsant activity in albino CF1 mouse assessed as protection against maximal electroshock-induced seizures at 30 mg/kg, ip after 4 hrs; type: functional, organism-based; set-up: dose 30 mg/kg
[33] = system: Mus musculus; experiment: Neurotoxicity in albino CF1 mouse assessed as minimal motor impairment at 30 mg/kg, ip after 4 hrs by rotarod test; type: toxicity, organism-based; set-up: dose 30 mg/kg, route intraperitoneal; settings: in vivo
[34] = system: Mus musculus; experiment: Neurotoxicity in albino CF1 mouse assessed as minimal motor impairment at 30 mg/kg, ip after 0.5 hrs by rotarod test; type: toxicity, organism-based; set-up: dose 30 mg/kg, route intraperitoneal; settings: in vivo

## c1ccc(-c2c[nH]c(-c3ccccc3)n2)cc1
[1]
  Activity: Active
[2]
  Activity: inactive
[3]
  minimal effective dose: 100 mg/kg
[4]
  Activity: Active
[5]
  Activity: inactive
[6]
  Activity: Active
[7]
  Activity: Non-toxic
[8]
  minimal effective dose: > 300 mg/kg
[9]
  Activity: Active
[10]
  Activity: Non-toxic
[11]
  Activity: inactive
[12]
  minimal effective dose: > 30 mg/kg
[13]
  Activity: inactive
[14]
  Activity: inactive
[15]
  minimal effective dose: > 300 mg/kg
[16]
  Activity: Non-toxic
[17]
  Activity: inactive
[18]
  TD50: 126.8 mg/kg
[19]
  MED: 100 mg/kg
[20]
  Activity: inactive
[21]
  ED50: 161 mg/kg
[22]
  Activity: inactive
[23]
  Activity: Non-toxic
[24]
  Activity: Non-toxic
[25]
  Activity: inactive
[26]
  Activity: inactive
[27]
  Activity: inactive
[28]
  ED50: 61.7 mg/kg
[29]
  MED: 100 mg/kg
[30]
  Activity: Toxic
[31]
  Activity: inactive
[32]
  Activity: inactive
[33]
  Activity: Non-toxic
[34]
  Activity: Non-toxic
